From patent US10363235B2, “Compositions comprising 15-HEPE and methods of treating or preventing fibrosis using same” (Afimmune Limited, priority 2014, dated 2019)
Entries after “also recorded” stand apart in the source; their conditions may differ.

What was measured:
mouse model of NAFLD = mouse model of NAFLD (streptozotocin plus high-fat diet), Example 1; format: in vivo, mice (C57/BL6); conditions: for fibrosis (histology, sirius red staining): compared to vehicle, FIGS. 7A-7D; for NAFLD Activity Score (NAS): FIGS. 8A-D
Experimental: The purpose of this study was to examine the effects of 15-HEPE and 15-HETrE compared to vehicle and to telmisartan in a mouse model of NAFLD.
C57/BL6 mice obtained from Charles River Laboratories were divided into 6 study groups as follows:
Group 1 (Vehicle): Twelve mice were each administered a single dose of steptozotocin after birth and fed a high-fat diet for four weeks. The mice were then fed vehicle in a volume of 10 mL/kg once daily from 5 to 12 weeks of age.
Group 2 (telmisartan): Twelve mice were each administered a single dose of steptozotocin after birth and fed a high-fat diet for four weeks. The mice were then fed telmisartan in an amount of 5 mg/kg once daily from 5 to 12 weeks of age.
Group 3 (15-HEPE, low dose): Twelve mice were each administered a single dose of steptozotocin after birth and fed a high-fat diet for four weeks. The mice were then fed 15-HEPE in an amount of 50 mg/kg once daily from 5 to 12 weeks of age.
Group 4 (15-HEPE, high dose): Twelve mice were each administered a single dose of steptozotocin after birth and fed a high-fat diet for four weeks. The mice were then fed 15-HEPE in an amount of 500 mg/kg once daily from 5 to 12 weeks of age.
Group 5 (15-HETrE, low dose): Twelve mice were each administered a single dose of steptozotocin after birth and fed a high-fat diet for four weeks. The mice were then fed 15-HETrE in an amount of 10 mg/kg once daily from 5 to 12 weeks of age.
Group 6 (15-HETrE, high dose): Twelve mice were administered a single dose of steptozotocin after birth and fed a high-fat diet for four weeks. The mice were then fed 15-HETrE in an amount of 100 mg/kg once daily from 5 to 12 weeks of age.
At 12 weeks of age, all mice were assessed for changes in: • serum biochemistry (e.g., ALT levels, LDL levels, VLDL levels, HDL levels, triglyceride levels, total cholesterol level), • fibrosis (e.g., histology using sirius red staining), and • NAFLD activity score (including, e.g., H&E staining histology). Results

[1] = 15-HEPE levels in tissues of dosed rats; format: in vivo; conditions: 500 mg/kg for 7 days, treated vs untreated control, FIG. 11
Experimental: Rats (n=5) were dosed with 15-HEPE (DS102) 500 mg/kg for 7 days and organs excised to analyse 15-HEPE levels in the tissues of treated vs untreated animals.

[2] = test system: mouse model of non-alcoholic steatohepatitis (NASH); experiment: NASH mouse model (streptozotocin plus high fat diet), liver fibrosis, Example 2; format: in vivo, mice; conditions: 500 mg/kg orally once daily from 5 to 9 weeks of age; compared with EPA (500 mg/kg) or vehicle; FIG. 9
Experimental: Non-alcoholic steatohepatitis (NASH) was induced in mice by a single subcutaneous injection of 200 μg of streptozotocin (Sigma Aldrich) two days after birth and feeding with high fat diet (57 kcal % fat, CLEA Japan) after 4 weeks of age. After randomization, each mouse was orally administered vehicle, telmisartan (10 mg/kg), 15-HEPE (500 mg/kg) or EPA (500 mg/kg) once daily from 5 to 9 weeks of age. At the end of the 9th week, the mice were sacrificed and analyzed.

[3] = test system: Lung Fibroblasts from Idiopathic Pulmonary Fibrosis (IPF) patients; experiment: cytotoxicity in IPF lung fibroblasts; format: cell-based, human; conditions: treatment for 48 hours
[4] = test system: Lung Fibroblasts from Idiopathic Pulmonary Fibrosis (IPF) patients; experiment: TGF-beta induced alpha-SMA production in IPF lung fibroblasts; format: cell-based, human; conditions: 100 ug/ml; 2 hours pretreatment, then TGF beta (20 ng/ml) for 48 hours; FIG. 10
Experimental: Lung Fibroblasts from Idiopathic Pulmonary Fibrosis (IPF) patients were plated at 10000 cells per well in their respective growth mediums and allowed to attach overnight. After attachment, the cells were pretreated with 15(S)-HEPE for 2 hours in their respective assay mediums. After 2 hours, the cells were then treated with compounds+/−TGF beta (20 ng/ml) for 48 hours. After 48 hours, the conditioned media was collected and frozen at −80° C. for future collagen analysis. After collection, the cells were stained for SMA I expression. The collagen ELISA was performed according to the manufacturer's instructions.

[5] = telmisartan 5 mg/kg once daily from 5 to 12 weeks of age, vs vehicle

With CCCc1nc2c(C)cc(-c3nc4ccccc4n3C)cc2n1Cc1ccc(-c2ccccc2C(=O)O)cc1 [telmisartan, 2-(4-{[4-Methyl-6-(1-methyl-1H-1,3-benzodiazol-2-yl)-2-propyl-1H-1,3-benzodiazol-1-yl]methyl}phenyl)benzoic acid] the “fibrosis (histology, sirius red staining)” value (mouse model of NAFLD; telmisartan 5 mg/kg once daily from 5 to 12 weeks of age) was “low amount of fibrosis”, the Hydroxyproline levels (mouse model of NAFLD; [5]) was “did not show statistically significant reductions” and the LDL levels (mouse model of NAFLD; [5]) was “did not show statistically significant reductions”. The Total cholesterol levels (mouse model of NAFLD; [5]) was “did not show statistically significant reductions”, the VLDL levels (mouse model of NAFLD; [5]) was “did not show statistically significant reductions” and the “plasma ALT levels” value (mouse model of NAFLD; [5]) was “did not show statistically significant reductions”. The serum triglycerides (mouse model of NAFLD; [5]) was “did not show statistically significant reductions” and the “NAFLD Activity Score (NAS)” value (mouse model of NAFLD; telmisartan 5 mg/kg once daily from 5 to 12 weeks of age, vs vehicle, p<0.001) was “significantly lower”.

For CCC=CCC(O)C=CC=CCC=CCC=CCCCC(=O)O (stereo not shown) [15-HEPE, 15-Hydroxy-eicosa-5,8,11,13,17-pentaenoic acid], the “15-HEPE level in the liver” value [1] was “significantly more”, the “15-HEPE level in the lung” value [1] was “significantly more” and the “treating and/or preventing liver fibrosis” value [2] was “more effective”. The cytotoxicity [3] was “No cytotoxicity”, the “fibrosis (histology, sirius red staining)” value (mouse model of NAFLD; high-dose 15-HEPE 500 mg/kg once daily from 5 to 12 weeks of age, equivalent to telmisartan) was “statistically equivalent low amount of fibrosis” and the “plasma ALT levels” value (mouse model of NAFLD; high-dose 15-HEPE 500 mg/kg once daily from 5 to 12 weeks of age, vs high-dose 15-HETrE group (100 mg/kg), FIG. 6) was “significantly lower”. The “NAFLD Activity Score (NAS)” value (mouse model of NAFLD; high-dose 15-HEPE 500 mg/kg once daily from 5 to 12 weeks of age, vs placebo (vehicle), p<0.01) was “significantly lower”, the “plasma ALT levels” value (mouse model of NAFLD; high-dose 15-HEPE 500 mg/kg once daily from 5 to 12 weeks of age, vs vehicle, FIG. 6) was “significantly lower” and the Total cholesterol levels (mouse model of NAFLD; low-dose 15-HEPE 50 mg/kg once daily from 5 to 12 weeks of age, vs vehicle, FIG. 4) was “significantly lower”. The “TGF-beta induced alpha-SMA production” value [4] was “inhibited; also recorded: inhibition”.

In the case of CCCCCC(O)/C=C/C=C\C/C=C\CCCCCCC(=O)O (stereo not shown) [15-HETrE, 15-hydroxyeicosa-8(Z),11(Z),13(E)-trienoic acid], the serum triglycerides (mouse model of NAFLD; low-dose 15-HETrE 10 mg/kg once daily from 5 to 12 weeks of age, vs vehicle (Mann Whitney), FIG. 1) is reported as “significantly lower”, the VLDL levels (mouse model of NAFLD; low-dose 15-HETrE 10 mg/kg once daily from 5 to 12 weeks of age, vs vehicle, FIG. 2) is reported as “significantly lower” and the LDL levels (mouse model of NAFLD; low-dose 15-HETrE 10 mg/kg once daily from 5 to 12 weeks of age, vs vehicle, FIG. 3) is reported as “significantly lower”. The Total cholesterol levels (mouse model of NAFLD; low-dose 15-HETrE 10 mg/kg once daily from 5 to 12 weeks of age, vs vehicle, FIG. 4) was “significantly lower”.
